According to patent US11000033B2, “Ketone or oxime compound, and herbicide” (NISSAN CHEMICAL CORPORATION, priority 2014, dated 2021):

What was measured:
Format in all cases: in vivo
[1] = tested on: Monochoria vaginalis; test: Test Example 1: herbicidal activity, application before weed generation in submerged conditions (symbol C); details: application herbicide amount 320 g/ha
Procedure, shortened: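 Greenhouse growth at 25–30 °C lasted 3 weeks after treatment, when each weed was graded 0–5 by herbicidal ratio. Treatment was a diluted emulsion applied to the water surface of 4 cm-submerged alluvial soil on the sowing day.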

[2] = tested on: Scirpus juncoides; test: Test Example 2: herbicidal activity, application during weed generation in submerged conditions (symbol B); details: Table 23; application herbicide amount 320 g/ha; grade 0-5 by criteria of Test Example 1
Procedure, shortened: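 Steps: fill pots with alluvial soil; add water to 4 cm depth; co-sow the three weeds; grow at 25° C. to 30° C. under glass; at 1–2 leaves, dose the floodwater with diluted emulsion; rate damage visually after 3 weeks.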

[3] = tested on: Digitaria ciliaris; test: Test Example 4: herbicidal effect by soil treatment (symbol F); details: application herbicide amount 320 g/ha
Procedure, shortened: (§1)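 Seeds were sown in sterilized diluvial soil, covered with about 1.5 cm of soil, and the soil surface was sprayed with a water-diluted emulsion of the compound at a predetermined rate. Plants grew in a greenhouse at 25° C. to 30° C.; effects were scored visually 3 weeks after application.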

[4] = tested on: Echinochloa crus-galli var. crus-galli; test: Test Example 4: herbicidal effect by soil treatment (symbol H); details: application herbicide amount 320 g/ha
Procedure, shortened: as §1

[5] = tested on: Stellaria media; test: Test Example 4: herbicidal effect by soil treatment (symbol P); details: application herbicide amount 320 g/ha
Procedure, shortened: as §1

[6] = tested on: beet; test: Test Example 4: effect on crop by soil treatment (symbol f); details: application herbicide amount 320 g/ha
Procedure, shortened: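 Plants are raised in a greenhouse (25° C. to 30° C.) from spot-sown seed, which sits under about 1.5 cm of sterilized diluvial soil in a box shared with weed species.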

[7] = tested on: Echinochloa crus-galli var. crus-galli; test: Test Example 5: herbicidal effect by foliage application, plastic box (symbol H); details: 320 g/ha, 3 weeks after application
Procedure, shortened: (§2)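 Greenhouse foliar test: seedlings at 14 days, grown 25° C. to 30° C. in sterilized diluvial soil; compound applied as an aqueous dilution of an emulsion; response read 3 weeks after spraying.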

[8] = tested on: Alopecurus myosuroides; test: Test Example 5: herbicidal effect by foliage application, plastic box (symbol J); details: 320 g/ha, 3 weeks after application
Procedure, shortened: as §2

[9] = tested on: Apera spica-venti; test: Test Example 5: herbicidal effect by foliage application, plastic box (symbol L); details: 320 g/ha, 3 weeks after application
Procedure, shortened: as §2

[10] = tested on: Abutilon theophrasti; test: Test Example 5: herbicidal effect by foliage application, plastic box (symbol M); details: 320 g/ha, 3 weeks after application
Procedure, shortened: as §2

[11] = tested on: rice plant; test: Test Example 5: effect on crop by foliage application, plastic box (symbol b); details: 320 g/ha, 3 weeks after application
Procedure, shortened: (§3)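 Box culture: sterile diluvial soil, seeds spot-sown, ~1.5 cm cover, raised under glass at 25–30° C.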

[12] = tested on: rapeseed; test: Test Example 5: effect on crop by foliage application, plastic box (symbol g); details: 320 g/ha, 3 weeks after application
Procedure, shortened: as §3

| Structure (SMILES) | Herbicidal effect grade, C: Monochoria vaginalis [1] | Herbicidal effect grade, B: Scirpus juncoides [2] | F: Digitaria ciliaris, herbicidal effect grade [3] | H: Echinochloa crus-galli var. crus-galli, herbicidal effect grade [4] | P: Stellaria media, herbicidal effect grade [5] | f: beet, effect on crop grade [6] | H: Echinochloa crus-galli var. crus-galli, herbicidal effect grade [7] | J: Alopecurus myosuroides, herbicidal effect grade [8] | L: Apera spica-venti, herbicidal effect grade [9] | M: Abutilon theophrasti, herbicidal effect grade [10] | b: directly sowed rice plant, effect on crop grade [11] | g: rapeseed, effect on crop grade [12] |
| --- | --- | --- | --- | --- | --- | --- | --- | --- | --- | --- | --- | --- |
| COC(=O)C(C(=O)C1CC1)C1CC(O)=C(c2c(C)cc(C)cc2C)C1=O (stereo not drawn) [2-014] | 1 (Herbicidal ratio of 5% or higher and lower than 20%) | 3 (Herbicidal ratio of 40% or higher and lower than 70%) | 5 (Herbicidal ratio of 90% or more (almost completely withered)) | 5 (Herbicidal ratio of 90% or more (almost completely withered)) | 0 (Herbicidal ratio of 5% or lower (almost no effect)) | 0 (Herbicidal ratio of 5% or lower (almost no effect)) | 5 (Herbicidal ratio of 90% or more (almost completely withered)) | 5 (Herbicidal ratio of 90% or more (almost completely withered)) | 4 (Herbicidal ratio of 70% or higher and lower than 90%) | 3 (Herbicidal ratio of 40% or higher and lower than 70%) | 5 (Herbicidal ratio of 90% or more (almost completely withered)) | 4 (Herbicidal ratio of 70% or higher and lower than 90%) |
| Cc1cc(C)c(C2=C(O)CC(CC(=O)Cc3ccccc3)C2=O)c(C)c1 (stereo not drawn) [2-015] | 0 (Herbicidal ratio of 5% or lower (almost no effect)) | 0 (Herbicidal ratio of 5% or lower (almost no effect)) | 3 (Herbicidal ratio of 40% or higher and lower than 70%) | 1 (Herbicidal ratio of 5% or higher and lower than 20%) | 0 (Herbicidal ratio of 5% or lower (almost no effect)) | 0 (Herbicidal ratio of 5% or lower (almost no effect)) | 5 (Herbicidal ratio of 90% or more (almost completely withered)) | 5 (Herbicidal ratio of 90% or more (almost completely withered)) | 3 (Herbicidal ratio of 40% or higher and lower than 70%) | 1 (Herbicidal ratio of 5% or higher and lower than 20%) | 5 (Herbicidal ratio of 90% or more (almost completely withered)) | 4 (Herbicidal ratio of 70% or higher and lower than 90%) |
| Cc1cc(C)c(C2=C(O)CC(CC(=O)C3CC3)C2=O)c(C)c1 (stereo not drawn) [2-017] | 3 (Herbicidal ratio of 40% or higher and lower than 70%) | 4 (Herbicidal ratio of 70% or higher and lower than 90%) | 5 (Herbicidal ratio of 90% or more (almost completely withered)) | 5 (Herbicidal ratio of 90% or more (almost completely withered)) | 0 (Herbicidal ratio of 5% or lower (almost no effect)) | 0 (Herbicidal ratio of 5% or lower (almost no effect)) | 5 (Herbicidal ratio of 90% or more (almost completely withered)) | 4 (Herbicidal ratio of 70% or higher and lower than 90%) | 3 (Herbicidal ratio of 40% or higher and lower than 70%) | 1 (Herbicidal ratio of 5% or higher and lower than 20%) | 5 (Herbicidal ratio of 90% or more (almost completely withered)) | 4 (Herbicidal ratio of 70% or higher and lower than 90%) |
| CC(=O)CC1CC(OC(=O)C(C)(C)C)=C(c2c(C)cc(C)cc2C)C1=O (stereo not drawn) [2-018] | 1 (Herbicidal ratio of 5% or higher and lower than 20%) | 0 (Herbicidal ratio of 5% or lower (almost no effect)) | 5 (Herbicidal ratio of 90% or more (almost completely withered)) | 5 (Herbicidal ratio of 90% or more (almost completely withered)) | 0 (Herbicidal ratio of 5% or lower (almost no effect)) | 0 (Herbicidal ratio of 5% or lower (almost no effect)) | 1 (Herbicidal ratio of 5% or higher and lower than 20%) | 1 (Herbicidal ratio of 5% or higher and lower than 20%) | 1 (Herbicidal ratio of 5% or higher and lower than 20%) | 0 (Herbicidal ratio of 5% or lower (almost no effect)) | 2 (Herbicidal ratio of 20% or higher and lower than 40%) | 0 (Herbicidal ratio of 5% or lower (almost no effect)) |
| CCCC(=O)CC1CC(O)=C(c2c(C)cc(C)cc2C)C1=O (stereo not drawn) [2-021] | 2 (Herbicidal ratio of 20% or higher and lower than 40%) | 2 (Herbicidal ratio of 20% or higher and lower than 40%) | 5 (Herbicidal ratio of 90% or more (almost completely withered)) | 4 (Herbicidal ratio of 70% or higher and lower than 90%) | 0 (Herbicidal ratio of 5% or lower (almost no effect)) | 0 (Herbicidal ratio of 5% or lower (almost no effect)) | 4 (Herbicidal ratio of 70% or higher and lower than 90%) | 5 (Herbicidal ratio of 90% or more (almost completely withered)) | 0 (Herbicidal ratio of 5% or lower (almost no effect)) | 0 (Herbicidal ratio of 5% or lower (almost no effect)) | 4 (Herbicidal ratio of 70% or higher and lower than 90%) | 3 (Herbicidal ratio of 40% or higher and lower than 70%) |
| Cc1cc(C)c(C2=C(O)CC(CC(=O)C(C)(C)C)C2=O)c(C)c1 (stereo not drawn) [2-022] | 0 (Herbicidal ratio of 5% or lower (almost no effect)) | 0 (Herbicidal ratio of 5% or lower (almost no effect)) | 0 (Herbicidal ratio of 5% or lower (almost no effect)) | 0 (Herbicidal ratio of 5% or lower (almost no effect)) | 0 (Herbicidal ratio of 5% or lower (almost no effect)) | 0 (Herbicidal ratio of 5% or lower (almost no effect)) | 1 (Herbicidal ratio of 5% or higher and lower than 20%) | 3 (Herbicidal ratio of 40% or higher and lower than 70%) | 2 (Herbicidal ratio of 20% or higher and lower than 40%) | 0 (Herbicidal ratio of 5% or lower (almost no effect)) | 5 (Herbicidal ratio of 90% or more (almost completely withered)) | 1 (Herbicidal ratio of 5% or higher and lower than 20%) |
